Source: paper doi:10.1101/2021.09.10.459855v1 (bioRxiv, 2021)

Experiments:
[1] = Micelle morphology by negative-stain TEM; assay type: physicochemical
[2] = tested on: LPS-activated Mφ TNF-α secretion (mouse RAW 264.7); assay: Mφ TNF-α secretion; assay type: cell-based; details: 6 hours
[3] = tested on: MHC II and CD86 on LPS-activated DCs; assay: DC surface marker expression, MHC II+CD86+ population; assay type: cell-based, mouse; details: 24 hours, 100 μM
Micelle surface charge = assay type: physicochemical; details: 100 μM in deionized, distilled water (ddH2O); Malvern DLS Zetasizer
[4] = tested on: LPS-activated DC TNF-α secretion; assay: DC TNF-α secretion; assay type: cell-based, mouse; details: for Decrease of DC TNF-α secretion: 6 hours
[5] = tested on: LPS-activated DC CCL22 production; assay: DC CCL22 production; assay type: cell-based, mouse

**Q.** For Vasoactive intestinal peptide [VIP], which “Aggregation / particle morphology” value ([1]; 100 μM (highest concentration)) is on record?
**A.** aggregate into spherical nanoparticles

**Q.** What about the Particle formation ([1]; lower concentrations than 100 μM (data not shown)) of the same substance?
**A.** no particle formation was observed

**Q.** What about the “Mφ TNF-α secretion” value ([2]; 100 μM) of the same substance?
**A.** cytokine secretion was suppressed

**Q.** And the “Mφ TNF-α secretion” value ([2]; concentration-dependent (0.1 - 100 μM), versus LPS alone)?
**A.** mild to moderate TNF-α suppression

**Q.** And the “MHC II and CD86 surface markers on DCs” value [3]?
**A.** failed to downregulate MHC II and CD86

**Q.** What about the Zeta potential (Micelle surface charge) of the same substance?
**A.** 6.82 ± 0.67 mV

**Q.** What about the “Decrease of DC TNF-α secretion” value ([4]; 10 μM) of the same substance?
**A.** slightly

**Q.** And the “Decrease of DC TNF-α secretion” value ([4]; 100 μM)?
**A.** more extensively

**Q.** And the “DC TNF-α secretion” value ([4]; 24 hours, 1 μM and 10 μM, versus LPS alone)?
**A.** suppressed TNF-α generation

**Q.** And the “DC CCL22 production” value ([5]; 1 μM and 10 μM (Figure S7))?
**A.** reduced CCL22 production

**Q.** What about the “DC CCL22 production” value ([5]; 100 μM (Figure S7)) of the same substance?
**A.** enhanced CCL22 expression
